The text below walks through data of ChEMBL document CHEMBL3745652, “Synthesis and evaluation of pretomanid (PA-824) oxazolidinone hybrids” (Bioorg Med Chem Lett, 2016).

As a reminder, the MIC is the smallest concentration in the dilution series that meets the test's criterion for growth inhibition. One may read the clearance as the rate of elimination divided by the concentration. Broadly, the Papp is the rate of passage across a membrane or cell layer, normalised by area and donor concentration. A word on the AUC(0-inf): it is the area under the concentration-time curve extrapolated to infinity. Usually IC50 stands for the concentration needed to halve the response being measured. In general, half-life refers to the time needed for the level to fall by half in the phase considered.

The subject of one series is Acinetobacter baumannii. The series can be described thus: Antimicrobial activity against Acinetobacter baumannii. The format is functional, organism-based.
The subject of series [1] is Mycobacterium tuberculosis. The series can be described thus: Antimicrobial activity against Mycobacterium tuberculosis H37Rv infected in C57BL/6 mouse assessed as reduction in bacterial load at 100 mg/kg, po after 28 days. The series is classed as functional, organism-based.
Series [2] concerns Mycobacterium tuberculosis. The series can be described thus: Antimicrobial activity against Mycobacterium tuberculosis H37Rv assessed as growth inhibition after 7 days by microbroth dilution method. The series is classed as functional. To be noted: 168 h. On the technique in general: Dilution methods test growth across graded concentrations, often in twofold steps.
Series [3] in a line: Clearance in C57BL/6 mouse at 10 mg/kg, iv. The format is ADME, organism-based. To be noted: in vivo.
A short description of series [4]: Half life in mouse liver microsomes. The series is classed as ADME. The conditions noted are these: microsomes. Background: Liver microsomes are vesicles of endoplasmic reticulum, rich in cytochrome P450 enzymes.
A further series concerns Bacillus subtilis. Kind of series: Antimicrobial activity against Bacillus subtilis. The series is classed as functional, organism-based.
The nature of series [5]: Apparent permeability from basolateral to apical side in human Caco2 cells. The format is ADME, cell-based. The conditions noted are these: caco-2. (Caco-2 monolayers are a common model of the intestinal barrier.)
A short description of series [6]: AUC(infinity) in C57BL/6 mouse at 10 mg/kg, iv. The format is ADME, organism-based. Details: dose 10 mg/kg, time infinity, route intravenous. To be noted: in vivo.
A short description of series [7]: Plasma protein binding in human. The format is ADME, cell-free.
In a further series the test system is Klebsiella pneumoniae. The series can be described thus: Antimicrobial activity against Klebsiella pneumoniae. The series is classed as functional, organism-based.
The nature of series [8]: Volume of distribution at steady state in C57BL/6 mouse at 10 mg/kg, iv. The conditions noted are these: in vivo, read-out: Vdss. The series is classed as ADME, organism-based.
The next series has as its system Enterococcus faecalis. The series can be described thus: Antimicrobial activity against Enterococcus faecalis. The series is classed as functional, organism-based.
The next series has as its system Streptococcus pyogenes. The series can be described thus: Antimicrobial activity against Streptococcus pyogenes. The format is functional, organism-based.
A further series has as its system Vero. Kind of series: Cytotoxicity against African green monkey Vero cells by cell titer glo assay. The series is classed as cell-based. To be noted: Chlorocebus sabaeus.
In a further series the test system is Streptococcus pneumoniae. Kind of series: Antimicrobial activity against Streptococcus pneumoniae. The series is classed as functional, organism-based.
Another series has as its system Mus musculus. The series can be described thus: Toxicity in C57BL/6 mouse at 300 mg/kg, po after 3 days. The format is organism-based. To be noted: in vivo, 72 h.
A short description of series [9]: Apparent permeability from apical to basolateral side in human Caco2 cells. The conditions noted are these: caco-2. The series is classed as ADME, cell-based.
The subject of another series is Bacillus anthracis. Kind of series: Antimicrobial activity against Bacillus anthracis. The series is classed as functional, organism-based.
Series [10] is described as follows: Half life in C57BL/6 mouse at 10 mg/kg, iv. The series is classed as ADME, organism-based. To be noted: in vivo.
Another series has as its system Escherichia coli. Kind of series: Antimicrobial activity against Escherichia coli. The series is classed as functional, organism-based.
Another series concerns Staphylococcus aureus. Kind of series: Antimicrobial activity against Staphylococcus aureus. The format is functional, organism-based.

Converted amounts (≈) assume the structure as drawn. The source made the active and inactive calls. Bounds are passed on as bounds.

Take `O=C1COCCN1c1ccc(CO[C@@H]2COc3nc([N+](=O)[O-])cn3C2)cc1`: the result (in the series with Acinetobacter baumannii; in [1]; with Bacillus subtilis; in the series with Klebsiella pneumoniae; in the series on Enterococcus faecalis; in the series with Streptococcus pyogenes) was inactive. In addition, the result in the series on Streptococcus pneumoniae, in the series on Bacillus anthracis, in the series with Escherichia coli and in the series with Staphylococcus aureus was inactive. In [2], the MIC was determined as 0.78 µg/mL (≈ 2.08 µM). Further, in series [3], the clearance turned out to be 22.5 mL/min/kg. Also, the t1/2 in [4] is 1100 min. Further, the Papp in [5] was 30.56 ×10⁻⁶ cm/s; in series [9], 40.08 ×10⁻⁶ cm/s. This compound also returned a total exposure AUC(0-inf) in [6] of 7410 ng·h/mL. In [7], this compound gave a PPB of 50.4%. The Vd in series [8] was 0.79 L/kg. In the series with Vero, this compound had an IC50 of more than 100 µg/mL. Further, the Activity result with Mus musculus is “Non-toxic”. The compound further gave a half-life in [10] of 28.8 min.

Regarding `O=[N+]([O-])c1cn2c(n1)OC[C@@H](OCc1ccc(N3CCOCC3)c(F)c1)C2`, the result (in the series on Acinetobacter baumannii; in series [1]; with Bacillus subtilis; in the series with Klebsiella pneumoniae; in the series with Enterococcus faecalis; in the series with Streptococcus pyogenes) was inactive. The result with Streptococcus pneumoniae, in the series on Bacillus anthracis, in the series on Escherichia coli and in the series on Staphylococcus aureus was inactive. Moreover, the clearance in series [3] was 16.5 mL/min/kg. For the same compound, the t1/2 in series [4] came to 462 min. The Papp in series [5] came out at 33.28 ×10⁻⁶ cm/s; in series [9], 43.33 ×10⁻⁶ cm/s. In [6], this compound gave an area under the curve AUC(0-inf) of 10100 ng·h/mL. Further, the PPB in [7] is listed as 51.3%. For the same compound, in series [8], the Vd was 1.16 L/kg. For the same compound, in the series with Vero, half-maximal inhibition (IC50) was put at 23.1 µg/mL (≈ 61.1 µM). For the same compound, the Activity result in the series with Mus musculus was “Non-toxic”. Besides, the half-life in series [10] was 58.8 min.

On to `O=C1CCCCN1c1ccc(CO[C@@H]2COc3nc([N+](=O)[O-])cn3C2)cn1`, for which the outcome in the series with Acinetobacter baumannii, with Bacillus subtilis, in the series with Klebsiella pneumoniae, in the series with Enterococcus faecalis, in the series on Streptococcus pyogenes and in the series with Streptococcus pneumoniae was inactive. The result with Bacillus anthracis, in the series on Escherichia coli and with Staphylococcus aureus was inactive. Besides, the MIC in series [2] amounted to 3.13 µg/mL (≈ 8.38 µM). This compound yielded a t1/2 in series [4] of 1220 min. Moreover, the values for the Papp in series [5] and in series [9] were 29.56 ×10⁻⁶ cm/s and 33.68 ×10⁻⁶ cm/s, respectively. For the same compound, the PPB in series [7] is recorded as 39.6%. The half-maximal inhibitory concentration (IC50) with Vero is more than 100 µg/mL.

With `O=[N+]([O-])c1cn2c(n1)OC[C@@H](OCc1ccc(N3CCSCC3)c(F)c1)C2`, the outcome in the series on Acinetobacter baumannii, with Bacillus subtilis, in the series with Klebsiella pneumoniae, in the series on Enterococcus faecalis, with Streptococcus pyogenes and with Streptococcus pneumoniae was inactive. The result in the series on Bacillus anthracis, in the series on Escherichia coli and with Staphylococcus aureus was inactive. Moreover, in series [2], the MIC came to 3.13 µg/mL (≈ 7.94 µM). Besides, the t1/2 in [4] is 3.6 min. Also, the apparent permeability coefficient (Papp) in series [5] turned out to be 24.26 ×10⁻⁶ cm/s; in series [9], 32.11 ×10⁻⁶ cm/s. The PPB in [7] came out at 83.2%. This compound also yielded an IC50 in the series on Vero of 14.2 µg/mL (≈ 36 µM).

For the compound `O=[N+]([O-])c1cn2c(n1)OC[C@@H](OCc1ccc(N3CCOCC3)nc1)C2`, the result with Acinetobacter baumannii, with Bacillus subtilis, in the series with Klebsiella pneumoniae, in the series on Enterococcus faecalis, with Streptococcus pyogenes and in the series with Streptococcus pneumoniae was inactive. For the same compound, the outcome in the series on Bacillus anthracis, in the series with Escherichia coli and with Staphylococcus aureus was inactive. Besides, in [2], the MIC was determined as 3.13 µg/mL (≈ 8.66 µM). Moreover, in series [4], the t1/2 was 1690 min. Besides, the Papp in series [5] came out at 27.63 ×10⁻⁶ cm/s; in series [9], 37.13 ×10⁻⁶ cm/s. In [7], this compound gave a PPB of 14.5%. Besides, the IC50 with Vero is more than 100 µg/mL.

For `O=C1COCCN1c1ccc(CO[C@@H]2COc3nc([N+](=O)[O-])cn3C2)cc1F`, the outcome (with Acinetobacter baumannii; in series [1]; in the series with Bacillus subtilis; with Klebsiella pneumoniae; in the series with Enterococcus faecalis; with Streptococcus pyogenes) was inactive. Besides, the outcome with Streptococcus pneumoniae, in the series with Bacillus anthracis, with Escherichia coli and in the series with Staphylococcus aureus was inactive. Further, the MIC in [2] stood at 0.78 µg/mL (≈ 1.99 µM). Moreover, the clearance in series [3] amounted to 32.3 mL/min/kg. For the same compound, the t1/2 in series [4] was found to be 792 min. For the same compound, the apparent permeability coefficient (Papp) came out at 31.67 ×10⁻⁶ cm/s in series [5] and 50.57 ×10⁻⁶ cm/s in series [9]. For the same compound, the AUC(0-inf) in series [6] came to 5180 ng·h/mL. The compound also came in with a PPB in [7] of 67.8%. Moreover, the Vd in series [8] was determined as 0.63 L/kg. Further, the IC50 in the series with Vero was more than 100 µg/mL. Further, the Activity result in the series with Mus musculus is reported as “Non-toxic”. This compound also gave a half-life in series [10] of 16.8 min.
